# Where “and” joins values, the source holds several entries; their conditions need not be identical. Identical values can stand only once.
# Tested on: THP-1 viability, CellTiter-Glo luminescence, 72 h
# Assay: PubChem AID 2252
row,Compound,EC50
1,CCOC(=O)C1=C(O)c2ccccc2C(=O)/C1=C\c1ccc(C)cc1,23.3 µM
2,COc1ccccc1Nc1nc(NCc2ccco2)c2ccccc2n1,13.3 µM
3,Cc1[nH]cnc1C(=O)N/N=C/c1ccc([N+](=O)[O-])s1,13.3 µM
4,O=C(N/N=C/c1cc(Cl)ccc1O)c1cccnc1,2.87 µM
5,CCn1nccc1C(=O)Nc1cc(Cl)cc(Cl)c1,37 µM
6,C/C(=N\NC(=O)c1cccc(Br)c1)c1ccccn1,1.55 µM
7,O=C(N/N=C/c1cc(Br)ccc1O)c1ccncc1,5.06 µM
8,CNc1ccc(SC#N)cc1,33.7 µM
9,COc1ccccc1Nc1c2ccccc2nc2ccccc12,8.38 µM
10,CNCCCN1c2ccccc2CCc2ccccc21,40.4 µM
11,CCOC(=O)N1CCN(Cc2cc(Cl)c3cccnc3c2O)CC1,3.12 µM
12,CC(C)(c1ccccc1)c1ccc(OCCCNCCO)cc1,16.6 µM
13,CCOc1ccc(N2C(=O)CN(O)C=C3N=c4ccccc4=C32)cc1,39.3 µM
14,CC(C)N1CSC(=S)N(Cc2ccccc2)C1,12.8 µM
15,COc1cccc(/C=N/NC(=O)CNC(=O)COc2cccc(C)c2)c1O,9.52 µM
16,CCCCCc1ccc(OCCCC[n+]2ccccc2)c(CCCCC)c1,1.48 µM
17,O=C(N/N=C\c1ccc(Cl)s1)c1cccs1,32.7 µM
18,CCCCCCCCC1=NCCc2c1[nH]c1ccccc21,15 µM
19,Cc1cccc(NC(=O)C2CCCN2S(=O)(=O)c2ccc3c(c2)n(C)c(=O)c(=O)n3C)c1 (centres undefined),11 µM
20,CCCCCNC(=O)c1cn(CC)c2cc(N3CCN(C)CC3)c(F)cc2c1=O,19.8 µM

row,Compound,EC50
1,CCCCc1ccc2[nH]cc(CCN)c2c1,7.81 µM
2,O=[N+]([O-])c1cccnc1S(=O)(=O)c1ccccc1,1.77 µM
3,COc1ccccc1N1CCN(Cc2ccc(O)c3ncccc23)CC1,2.61 µM
4,Oc1ccc(COCc2ccccc2)c2cccnc12,1.24 µM
5,O=Cc1c(Cl)nc2ccccn2c1=O,21.7 µM
6,CCC(/C=C1\Sc2ccc(OC)cc2N1CCO)=C\c1sc2ccc(OC)cc2[n+]1CCO,8.14 µM
7,Cc1cccc(NC2=NC3(CCCCC3)N=C(N)N2)c1,34.2 µM
8,COc1ccc(Nc2c3ccccc3nc3ccccc23)cc1,8.99 µM
9,Cc1cc(C2N=C(N)Nc3nc4ccccc4n32)c(C)n1-c1ccccc1Cl (centres undefined),11.4 µM
10,O=C(CSc1ccc(Cl)cc1)c1ccco1,< 0.1 µM
11,O=C(N/N=C/c1ccccc1O)c1ccncc1,15.2 µM
12,CN(C)CCCN(C(=O)c1ccc2c(c1)CCCC2)c1nc2ccc(Cl)cc2s1,9.82 µM
13,O=C(Cn1nc(CNc2ccc(Br)cc2)[n+]2c1CCCCC2)c1ccc([N+](=O)[O-])cc1,27.3 µM
14,COc1cc(/C=C/[N+](=O)[O-])ccc1O,12.1 µM
15,CC1CCCC(NC(=O)COC(=O)CCSc2ccccc2)C1C (centres undefined),< 0.1 µM
16,CN(C)CCCN(C(=O)CCc1ccccc1)c1nc2ccc(Br)cc2s1,13.4 µM
17,Cc1[nH]c2ccccc2c1/C=C/c1nc2ccccc2c(=O)[nH]1,14 µM
18,Cc1cccc(Nc2cc(C)c3c(O)cccc3n2)c1C,5.35 µM
19,CC(C)(C)c1nc(SCC(=O)NCc2ccco2)c2ccccc2n1,30 µM
20,c1ccc(Nc2nc(NCC3CCCO3)c3ccccc3n2)cc1 (centres undefined),3.83 µM

row,Compound,EC50
1,CNCCCC1Sc2ccccc2Oc2ccccc21 (centres undefined),23.6 µM
2,CCN(CC)CCn1c(NCc2cc(OC)ccc2OC)nc2ccccc21,42.7 µM
3,CCN(CC(O)COc1ccc(OCC(O)CN(CC)C2CCCCC2)cc1)C1CCCCC1 (centres undefined),37.4 µM
4,CCn1cc(C(=O)O)c(=O)c2cc(F)c(N3CCN(S(=O)(=O)c4ccc(NC(C)=O)cc4)CC3)cc21,47.2 µM
5,Cc1nc2ccccc2nc1N/N=C/c1ccc(O)cc1O,3.62 µM
6,CCCCCCCCNC(C)C(O)c1ccc(SC(C)C)cc1 (centres undefined),3.57 µM
7,CCOc1ccc(-c2c[n+]3c(n2-c2ccccc2)CCCCC3)cc1,25.6 µM
8,Cc1ccccc1C(=O)NNC(=S)NC(=O)COc1ccccc1,48.1 µM
9,COc1ccc(N2CC(C(=O)N/N=C/c3cc([N+](=O)[O-])ccc3O)CC2=O)cc1 (centres undefined),17.7 µM
10,Cc1c(O)cccc1C(=O)N[C@@H](CSc1ccccc1)[C@H](O)CN1C[C@H]2CCCC[C@H]2C[C@H]1C(=O)NC(C)(C)C,11.9 µM and 11.6 µM
11,N=c1n(CCN2CCCCC2)c2ccccc2n1CC(O)COc1ccccc1 (centres undefined),28.7 µM
12,CC1CC(=O)c2c(cc3c(-c4c(O)cc(O)c5c(O)c6c(cc45)OC(C)CC6=O)c(O)cc(O)c3c2O)O1 (centres undefined),< 0.1 µM
13,O=CN/N=C/c1c(O)ccc2ccccc12,5.1 µM
14,C#CCOCCOCCOCCNc1nc(N2CCN(C(=O)CCCCCCCCCCNC(=O)[C@@H](CCSC)n3cc(CCO)nn3)CC2)nc(N2CCN(C(=O)CCCCCCCCCCNC(=O)[C@H]([C@@H](C)CC)n3cc(CCCCCN)nn3)CC2)n1,12.9 µM
15,CCOc1cccc(CNCCc2c(C)[nH]c3ccc(OC(F)(F)F)cc23)c1O,3.51 µM
16,CCCCCOc1ccc(C)cc1CN(CCCl)CCCl,28.9 µM
17,O=C(/C=C/c1ccccc1)c1ccc(NC2=NCCCS2)cc1,27.4 µM
18,c1cncc(CSc2ccc(-c3cccs3)nn2)c1,35.2 µM
19,C#CCOCCOCCOCCNc1nc(N2CCN(C(=O)CCCCCCCCCCNC(=O)[C@H](CO)n3cc(CCCCCN)nn3)CC2)nc(N2CCN(C(=O)CCCCCCCCCCNC(=O)[C@H](CCCN=C(N)N)n3cc(C[C@@H](C)CC)nn3)CC2)n1,6.31 µM

# From PubChem BioAssay AID2252 (Southern Research Specialized Biocontainment Screening …, 2010)
